Experiments:
[1] = test system: human prostate cancer LD1-0034-361929 subcutaneous xenograft tumor model; test: In-vivo pharmacodynamic study on human castration resistant prostate cancer PDX subcutaneous tumor model; set-up: species or system male Nu/Nu nude mice; conditions: abiraterone-resistant CRPC PDX in nude mice, oral intragastric Qd, 39 days, compound 29 15 mg/kg, abiraterone 200 mg/kg; for TGI (%): TGI=1−T/C
Procedure: Test sample: compound 29 of the present invention, the structure of which is shown above, and which was prepared as described in the detailed description of WO2018108079A1. Abiraterone was obtained from commercially available sources.
Animals, information on the patient from whom the tumor masses were derived, and other materials: human prostate cancer tumor sample LD1-0034-361929, derived from a patient resistant to abiraterone; clinical diagnosis: castration resistant prostate cancer with bladder metastatic lesions, pathological diagnosis: prostate cancer-poorly differentiated adenocarcinoma; • male Nu/Nu nude mice, aged 6-8 weeks.
The tumor masses were inoculated into the right back of mice, and the animals were weighed before administration. Tumor volumes were measured, and grouping was designed in blocks according to the tumor volumes.
Administration was carried out as in the table below.
The animals were monitored daily for health status and mortality, body weight and tumor volume were measured twice a week, and samples were collected after the last administration. The therapeutic effect on tumor volume was evaluated by TGI %, wherein the relative tumor inhibition rate TGI (%): TGI=1−T/C (%). T/C % is the relative tumor proliferation rate, i.e., the percentage of the relative tumor volume in the treatment and control groups at a given time point. T and C are relative tumor volumes (RTVs) of the treatment and control groups at a given time point, respectively. The calculation formula is as follows: T/C %=TRTV/CRTV×100% (TRTV: mean RTV for treatment group; CRTV: mean RTV for vehicle control group; RTV=Vt/V0, wherein V0 is the tumor volume of the animal at the time of grouping, and Vt is the tumor volume of the animal after treatment).

[2] = test system: metastatic castration resistant prostate cancer; test: Clinical study in patients with metastatic castration resistant prostate cancer; format: in vivo, human; conditions: among 11 mCRPC patients with response evaluation data (10 at 12 mg, 1 at 10 mg), oral once daily, 28-day cycles
Procedure: Test medicament: compound 29, the structure of which is shown above, and which was prepared as described in the detailed description of WO2018108079A1.
Inclusion criteria: patients with histopathologically or cytologically confirmed metastatic castration resistant prostate cancer for which no standard therapy is available.
Dosing regimen: compound 29 was administered orally at a prescribed dose (such as 8 mg, 10 mg, or 12 mg) once daily, with 28 consecutive days of administration being one cycle.
Response evaluation: among the 11 patients with response evaluation data (10 patients received a single dose of 12 mg, and 1 patient received a single dose of 10 mg), 7 patients achieved partial response (PR), and 2 patients reported stable disease (SD).

LNCaP clone FGC = test: Prostate cancer cell proliferation assay (Cell titer-Glo, 72 h), LNCaP clone FGC; format: cell-based; conditions: Homo sapiens, LNCaP clone FGC cells, inhibition of proliferation, read-out: Compound IC50/nM
Procedure: (§1) Prostate cancer cell materials: DU145, PC-3, VCaP, and LNCaP clone FGC.
(§2) Test instrument: PE Envision multimode microplate reader.
(§3) Each cell line was seeded in a 384-well plate for adherent culture overnight, and then compounds at different concentrations (10 dose groups, serial 4-fold dilution with DMSO) were added to give a maximum final concentration of 10000 nM, wherein the final DMSO content was 0.33%, and staurosporine at a final concentration of 10 μM was used as a system positive control ([…] inhibition). Negative control wells contained medium with the same amount of DMSO (0% inhibition). The plate was incubated at 37° C., 5% CO2 and 95% humidity for 72 h for later test. 30 μL of Cell titer-Glo reagent was added to each well, and after the plate was incubated at room temperature for 30 min, the final data were read using the microplate reader.
(§4) The data were calculated as follows:
(§5) Inhibition rate (%)=100%−(compound signal−system positive control signal)/(negative control signal−system positive control signal)[…].

DU145 = test: Prostate cancer cell proliferation assay (Cell titer-Glo, 72 h), DU145; format: cell-based; conditions: Homo sapiens, DU-145, DU145 cells, inhibition of proliferation, read-out: Compound IC50/nM
Procedure: as §1, §2, §3, §4, §5

VCaP = test: Prostate cancer cell proliferation assay (Cell titer-Glo, 72 h), VCaP; format: cell-based; conditions: Homo sapiens, VCaP cells, inhibition of proliferation, read-out: Compound IC50/nM
Procedure: as §1, §2, §3, §4, §5

PC-3 = test: Prostate cancer cell proliferation assay (Cell titer-Glo, 72 h), PC-3; format: cell-based; conditions: Homo sapiens, PC-3 cells, inhibition of proliferation, read-out: Compound IC50/nM
Procedure: as §1, §2, §3, §4, §5

Row | SMILES | Tumor volume (mm^3) [1] | TGI (%) [1] | patients achieved partial response (PR) [2] | IC50 (LNCaP clone FGC) | IC50 (DU145) | IC50 (VCaP) | IC50 (PC-3)
1 | C[C@]12CC[C@H](O)CC1=CC[C@@H]1[C@@H]2CC[C@]2(C)C(c3cccnc3)=CC[C@@H]12 [Abiraterone, reference compound] | 1549.43 ± 533.15 mm^3 | −8.97% |  |  |  |  | 
2 | Cc1[nH]nc2c1N=C(c1ccccc1Cl)c1cnc(N3CCOCC3)cc1N2 [Compound 29] | 622.23 ± 247.3 mm^3 | 58.07% | 7 patients | 1000 to 10000 nM | < 1000 nM | < 1000 nM | < 1000 nM

Source: patent publication US20250032504A1, “NOVEL APPLICATION OF KINASE INHIBITOR” (TRANSTHERA SCIENCES (NANJING), INC., priority 2021, published 2025)
